Source: patent US9353107B2 (Aurigene Discovery Technologies Limited, priority 2012, dated 2016)

Molecular target: T1, recombinant human ALK enzyme (ALK WT) (Homo sapiens, UniProt Q9UM73)
T1 construct: purchased Carna Biosciences 08-518
Test: ALK WT cell free enzymatic assay (TR-FRET)
Assay type: biochemical
Conditions: 1 μM ATP; for IC50: 10 point dose response; for inhibition at 0.1 µM: compound at 100 nM; for inhibition at 0.1 µM / inhibition at 1 µM: 30 min pre-incubation; for inhibition at 1 µM: compound at 1 μM
How it was run: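 Read-out is TR-FRET (665 nm/615 nm ratio) using an Eu-labeled anti-phosphotyrosine antibody. Compound is pre-incubated 30 min with recombinant human ALK, then reacted 30 min with 1 μM ATP and 40 nM Poly GT substrate. Values are percent inhibition at 100 nM and 1 μM, plus IC50 from 10-point variable-slope regression.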

T1 sequence (Q9UM73 1058-1620 limits assumed): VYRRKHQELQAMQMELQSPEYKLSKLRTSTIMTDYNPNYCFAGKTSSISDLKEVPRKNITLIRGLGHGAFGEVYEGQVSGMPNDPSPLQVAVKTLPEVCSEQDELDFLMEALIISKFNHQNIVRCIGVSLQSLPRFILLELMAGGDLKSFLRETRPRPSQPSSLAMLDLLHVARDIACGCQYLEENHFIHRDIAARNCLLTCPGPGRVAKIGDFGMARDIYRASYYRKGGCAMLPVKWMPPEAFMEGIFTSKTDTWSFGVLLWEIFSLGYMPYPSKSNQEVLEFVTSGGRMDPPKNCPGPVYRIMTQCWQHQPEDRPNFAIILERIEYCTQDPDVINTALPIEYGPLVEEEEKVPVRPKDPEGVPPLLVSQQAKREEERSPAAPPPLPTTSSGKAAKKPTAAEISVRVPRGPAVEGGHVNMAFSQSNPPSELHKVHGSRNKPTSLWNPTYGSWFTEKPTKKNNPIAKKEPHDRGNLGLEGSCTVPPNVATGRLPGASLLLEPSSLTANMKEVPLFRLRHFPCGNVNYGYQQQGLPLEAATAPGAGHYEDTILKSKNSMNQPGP

IC50 [nM] | inhibition at 0.1 µM [%] | inhibition at 1 µM [%] | Structure (SMILES)
< 50 | 95 | 99 | C[C@@H](O)CN1CCN(c2ccc(-c3cnc4[nH]cc(-c5cnn(Cc6cccc(F)c6)c5)c4c3)cc2)CC1 [Example 120, (R)-1-(4-(4-(3-(1-(3-fluorobenzyl)-1H-pyrazol-4-yl)-1H-pyrrolo[2,3-b]pyridin-5-yl)phenyl)piperazin-1-yl)propan-2-ol]
< 50 | 91 | 95 | C[C@H](O)CN1CCN(c2ccc(-c3cnc4[nH]cc(-c5cnn(Cc6cccc(F)c6)c5)c4c3)c(F)c2)CC1 [Example 121, (S)-1-(4-(3-fluoro-4-(3-(1-(3-fluorobenzyl)-1H-pyrazol-4-yl)-1H-pyrrolo[2,3-b]pyridin-5-yl)phenyl)piperazin-1-yl)propan-2-ol]
< 50 | 90 | 96 | OC1CCN(c2ccc(-c3cnc4[nH]cc(-c5cnn(Cc6cccc(F)c6)c5)c4c3)cc2)CC1 [Example 122, 1-(4-(3-(1-(3-fluorobenzyl)-1H-pyrazol-4-yl)-1H-pyrrolo[2,3-b]pyridin-5-yl)phenyl)piperidin-4-ol]
< 50 | 92 | 96 | Cc1nn(Cc2cccc(F)c2)c(C)c1-c1c[nH]c2ncc(-c3ccc(N4CCN(C[C@H](C)O)CC4)cc3)cc12 [Example 123, (2S)-1-(4-(4-(3-(1-(3-fluorobenzyl)-3,5-dimethyl-1H-pyrazol-4-yl)-1H-pyrrolo[2,3-b]pyridin-5-yl)phenyl)piperazin-1-yl)propan-2-ol]
> 250 | 17 | 86 | O=C(CC1CC1)N1CCN(c2ccc(-c3cnc4[nH]cc(-c5cnn(Cc6cccc(F)c6)c5)c4c3)cc2)CC1 [Example 124, 2-cyclopropyl-1-(4-(4-(3-(1-(3-fluorobenzyl)-1H-pyrazol-4-yl)-1H-pyrrolo[2,3-b]pyridin-5-yl)phenyl)piperazin-1-yl)ethanone]
< 50 | 86 | 97 | CS(=O)(=O)N1CCN(c2ccc(-c3cnc4[nH]cc(-c5cnn(Cc6cccc(F)c6)c5)c4c3)cc2)CC1 [Example 125, 3-(1-(3-fluorobenzyl)-1H-pyrazol-4-yl)-5-(4-(4-(methylsulfonyl)piperazin-1-yl)phenyl)-1H-pyrrolo[2,3-b]pyridine]
< 50 | 95 | 97 | OCCN1CCN(c2ccc(-c3cnc4[nH]cc(-c5cnn(Cc6cccc(F)c6)c5)c4c3)cc2)CC1 [Example 126, 2-(4-(4-(3-(1-(3-fluorobenzyl)-1H-pyrazol-4-yl)-1H-pyrrolo[2,3-b]pyridin-5-yl)phenyl)piperazin-1-yl)ethanol]
< 50 | 96 | 97 | CN(C)CC(=O)N1CCN(c2ccc(-c3cnc4[nH]cc(-c5cnn(Cc6cccc(F)c6)c5)c4c3)cc2)CC1 [Example 127, 2-(dimethylamino)-1-(4-(4-(3-(1-(3-fluorobenzyl)-1H-pyrazol-4-yl)-1H-pyrrolo[2,3-b]pyridin-5-yl)phenyl)piperazin-1-yl)ethanone]
< 50 | 92 | 94 | O=C(CO)N1CCN(c2ccc(-c3cnc4[nH]cc(-c5cnn(Cc6cccc(F)c6)c5)c4c3)cc2)CC1 [Example 128, 1-(4-(4-(3-(1-(3-fluorobenzyl)-1H-pyrazol-4-yl)-1H-pyrrolo[2,3-b]pyridin-5-yl)phenyl)piperazin-1-yl)-2-hydroxyethanone]
< 50 | 96 | 99 | Cc1c(-c2c[nH]c3ncc(-c4ccc(N5CCN(C[C@H](C)O)CC5)cc4)cc23)cnn1Cc1cccc(F)c1 [Example 129, (S)-1-(4-(4-(3-(1-(3-fluorobenzyl)-5-methyl-1H-pyrazol-4-yl)-1H-pyrrolo[2,3-b]pyridin-5-yl)phenyl)piperazin-1-yl)propan-2-ol]
< 50 | 88 | 99 | Cc1nn(Cc2cccc(F)c2)cc1-c1c[nH]c2ncc(-c3ccc(N4CCN(C[C@H](C)O)CC4)cc3)cc12 [Example 130, (S)-1-(4-(4-(3-(1-(3-fluorobenzyl)-3-methyl-1H-pyrazol-4-yl)-1H-pyrrolo[2,3-b]pyridin-5-yl)phenyl)piperazin-1-yl)propan-2-ol]
< 50 | 83 | 99 | c1cncc(Cn2cc(-c3c[nH]c4ncc(-c5ccc(N6CCNCC6)cc5)cc34)cn2)c1 [Example 131, 5-(4-(piperazin-1-yl)phenyl)-3-(1-(pyridin-3-ylmethyl)-1H-pyrazol-4-yl)-1H-pyrrolo[2,3-b]pyridine]
< 50 | 100 | 100 | Fc1cccc(Cn2cc(-c3c[nH]c4ncc(-c5ccc(N6CCNCC6)nc5)cc34)cn2)c1 [Example 132, 3-(1-(3-fluorobenzyl)-1H-pyrazol-4-yl)-5-(6-(piperazin-1-yl)pyridin-3-yl)-1H-pyrrolo[2,3-b]pyridine]
< 50 | 97 | 100 | CN1CCN(c2ccc(-c3cnc4[nH]cc(-c5cnn(Cc6cc(F)cc(F)c6)c5)c4c3)cn2)CC1 [Example 133, 3-(1-(3,5-difluorobenzyl)-1H-pyrazol-4-yl)-5-(6-(4-methylpiperazin-1-yl)pyridin-3-yl)-1H-pyrrolo[2,3-b]pyridine]
< 50 | 97 | 100 | Fc1cc(F)cc(Cn2cc(-c3c[nH]c4ncc(-c5ccc(N6CCNCC6)nc5)cc34)cn2)c1 [Example 134, 3-(1-(3,5-difluorobenzyl)-1H-pyrazol-4-yl)-5-(6-(piperazin-1-yl)pyridin-3-yl)-1H-pyrrolo[2,3-b]pyridine]
< 50 | 95 | 100 | C[C@H](O)CN1CCN(c2ccc(-c3cnc4[nH]cc(-c5cnn(Cc6cc(F)cc(F)c6)c5)c4c3)cn2)CC1 [Example 135, (S)-1-(4-(5-(3-(1-(3,5-difluorobenzyl)-1H-pyrazol-4-yl)-1H-pyrrolo[2,3-b]pyridin-5-yl)pyridin-2-yl)piperazin-1-yl)propan-2-ol]
< 50 | 97 | 99 | NC(=O)CN1CCN(c2ccc(-c3cnc4[nH]cc(-c5cnn(Cc6cc(F)cc(F)c6)c5)c4c3)cn2)CC1 [Example 136, 2-(4-(5-(3-(1-(3,5-difluorobenzyl)-1H-pyrazol-4-yl)-1H-pyrrolo[2,3-b]pyridin-5-yl)pyridin-2-yl)piperazin-1-yl)acetamide]
< 50 | 99 | 100 | CN1CCN(c2ccc(-c3cnc4[nH]cc(-c5cnn(Cc6cccc(F)c6)c5)c4c3)cn2)CC1 [Example 137, 3-(1-(3-fluorobenzyl)-1H-pyrazol-4-yl)-5-(6-(4-methylpiperazin-1-yl)pyridin-3-yl)-1H-pyrrolo[2,3-b]pyridine]
< 50 | 100 | 100 | C[C@H](O)CN1CCN(c2ccc(-c3cnc4[nH]cc(-c5cnn(Cc6cccc(F)c6)c5)c4c3)cn2)CC1 [Example 138, (S)-1-(4-(5-(3-(1-(3-fluorobenzyl)-1H-pyrazol-4-yl)-1H-pyrrolo[2,3-b]pyridin-5-yl)pyridin-2-yl)piperazin-1-yl)propan-2-ol]
< 50 | 99 | 100 | NC(=O)CN1CCN(c2ccc(-c3cnc4[nH]cc(-c5cnn(Cc6cccc(F)c6)c5)c4c3)cn2)CC1 [Example 139, 2-(4-(5-(3-(1-(3-fluorobenzyl)-1H-pyrazol-4-yl)-1H-pyrrolo[2,3-b]pyridin-5-yl)pyridin-2-yl)piperazin-1-yl)acetamide]
< 50 | 80 | 95 | c1ccc(CCn2cc(-c3c[nH]c4ncc(-c5ccc(N6CCNCC6)nc5)cc34)cn2)cc1 [Example 140, 3-(1-phenethyl-1H-pyrazol-4-yl)-5-(6-(piperazin-1-yl)pyridin-3-yl)-1H-pyrrolo[2,3-b]pyridine]
< 50 | 58 | 96 | CN1CCN(c2ccc(-c3cnc4[nH]cc(-c5cnn(CCc6ccccc6)c5)c4c3)cn2)CC1 [Example 141, 5-(6-(4-methylpiperazin-1-yl)pyridin-3-yl)-3-(1-phenethyl-1H-pyrazol-4-yl)-1H-pyrrolo[2,3-b]pyridine]
– | 94 | 100 | OCCN1CCN(c2ccc(-c3cnc4[nH]cc(-c5cnn(Cc6cccc(F)c6)c5)c4c3)cn2)CC1 [Example 142, 2-(4-(5-(3-(1-(3-fluorobenzyl)-1H-pyrazol-4-yl)-1H-pyrrolo[2,3-b]pyridin-5-yl)pyridin-2-yl)piperazin-1-yl)ethanol]
– | 60 | 98 | C[C@H](O)CN1CCN(c2ccc(-c3cnc4[nH]cc(-c5cnn(CCc6ccccc6)c5)c4c3)cn2)CC1 [Example 143, (S)-1-(4-(5-(3-(1-phenethyl-1H-pyrazol-4-yl)-1H-pyrrolo[2,3-b]pyridin-5-yl)pyridin-2-yl)piperazin-1-yl)propan-2-ol]
< 50 | 76 | 94 | COc1nc(N2CCN(C[C@H](C)O)CC2)ccc1-c1cnc2[nH]cc(-c3cnn(Cc4cccc(F)c4)c3)c2c1 [Example 144, (S)-1-(4-(5-(3-(1-(3-fluorobenzyl)-1H-pyrazol-4-yl)-1H-pyrrolo[2,3-b]pyridin-5-yl)-6-methoxypyridin-2-yl)piperazin-1-yl)propan-2-ol]
< 50 | 83 | 99 | Cc1cccc(Cn2cc(-c3c[nH]c4ncc(-c5ccc(N6CCN(C[C@H](C)O)CC6)nc5)cc34)cn2)c1 [Example 145, (S)-1-(4-(5-(3-(1-(3-methylbenzyl)-1H-pyrazol-4-yl)-1H-pyrrolo[2,3-b]pyridin-5-yl)pyridin-2-yl)piperazin-1-yl)propan-2-ol]
